Experimental data as given in patent publication US20240066086A1, “Topical Hyperpigmentation Compositions and Method of Use” (Allergan Sales, LLC, priority 2022, published 2024).

What was measured:
Type in all cases: cell-based
[1] = system: human melanoma cell line MNT-1 cells; test: in vitro melanogenesis / melanin production in MNT-1 cells
Description: In the MNT-1 cell in vitro tests, neferine and liensinine reduced melanin production after seven days by at least 50%, 60%, 70%, 80% or greater at concentrations ranging from 0.1 μM to 5 μM.

[2] = system: 3-D dark pigmented epidermis model Melanoderm™ MEL0300B tissue; test: in vitro melanogenesis in 3-D pigmented epidermis model
primary human melanocyes = test: in vitro melanogenesis in primary melanocytes

Measured: inhibition of melanogenesis

COc1cc2c(cc1OC)[C@@H](Cc1ccc(O)c(Oc3cc4c(cc3OC)CCN(C)[C@@H]4Cc3ccc(O)cc3)c1)N(C)CC2 [liensinine]
significantly inhibit melanogenesis: all assays above

COc1ccc(C[C@@H]2c3cc(Oc4cc(C[C@@H]5c6cc(OC)c(OC)cc6CCN5C)ccc4O)c(OC)cc3CCN2C)cc1 [Neferine, neferine]
significantly inhibit melanogenesis: all assays above
